Laboratory results published in the Kinase Knowledgebase extract (Sharma et al. 2016).

How the values were obtained:
Assay in all cases: Enzyme Assay
PIK3CB (Human) = PIK3CB (Human) (UniProt P42338)
PIK3CG (human) = PIK3CG (human) (UniProt P48736)
PIK3CD (Human) = PIK3CD (Human) (UniProt O00329)
PIK3CA (human) = PIK3CA (human) (UniProt P42336)
Sequence of PIK3CA (human) (P42336 whole entry, looked up): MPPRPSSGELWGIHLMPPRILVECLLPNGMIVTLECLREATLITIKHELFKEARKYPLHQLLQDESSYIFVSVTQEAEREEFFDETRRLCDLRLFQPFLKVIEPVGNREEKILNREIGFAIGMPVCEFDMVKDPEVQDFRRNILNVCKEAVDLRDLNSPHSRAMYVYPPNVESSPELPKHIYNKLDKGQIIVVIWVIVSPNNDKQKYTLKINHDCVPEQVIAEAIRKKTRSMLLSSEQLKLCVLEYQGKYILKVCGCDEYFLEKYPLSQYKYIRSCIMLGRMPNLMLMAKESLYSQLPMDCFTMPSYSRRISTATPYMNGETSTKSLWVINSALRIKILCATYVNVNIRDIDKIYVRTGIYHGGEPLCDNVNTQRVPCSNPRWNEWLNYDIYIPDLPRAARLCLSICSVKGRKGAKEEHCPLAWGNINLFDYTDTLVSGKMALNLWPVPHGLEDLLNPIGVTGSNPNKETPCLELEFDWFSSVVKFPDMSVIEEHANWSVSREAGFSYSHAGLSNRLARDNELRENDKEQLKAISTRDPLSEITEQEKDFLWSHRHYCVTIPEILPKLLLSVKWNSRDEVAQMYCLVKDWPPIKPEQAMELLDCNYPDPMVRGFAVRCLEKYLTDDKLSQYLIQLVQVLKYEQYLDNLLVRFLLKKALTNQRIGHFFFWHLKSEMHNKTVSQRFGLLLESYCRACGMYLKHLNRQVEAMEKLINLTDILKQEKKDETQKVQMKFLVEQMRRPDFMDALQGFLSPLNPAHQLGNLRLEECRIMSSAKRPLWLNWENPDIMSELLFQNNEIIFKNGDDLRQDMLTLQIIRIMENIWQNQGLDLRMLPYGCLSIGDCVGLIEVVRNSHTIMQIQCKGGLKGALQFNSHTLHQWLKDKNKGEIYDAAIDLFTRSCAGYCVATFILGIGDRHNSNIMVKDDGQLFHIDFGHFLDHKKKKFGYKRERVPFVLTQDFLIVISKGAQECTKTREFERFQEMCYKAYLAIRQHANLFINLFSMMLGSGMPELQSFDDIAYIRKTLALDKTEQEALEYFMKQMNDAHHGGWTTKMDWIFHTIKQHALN

Sequence of PIK3CG (human) (P48736 whole entry, looked up): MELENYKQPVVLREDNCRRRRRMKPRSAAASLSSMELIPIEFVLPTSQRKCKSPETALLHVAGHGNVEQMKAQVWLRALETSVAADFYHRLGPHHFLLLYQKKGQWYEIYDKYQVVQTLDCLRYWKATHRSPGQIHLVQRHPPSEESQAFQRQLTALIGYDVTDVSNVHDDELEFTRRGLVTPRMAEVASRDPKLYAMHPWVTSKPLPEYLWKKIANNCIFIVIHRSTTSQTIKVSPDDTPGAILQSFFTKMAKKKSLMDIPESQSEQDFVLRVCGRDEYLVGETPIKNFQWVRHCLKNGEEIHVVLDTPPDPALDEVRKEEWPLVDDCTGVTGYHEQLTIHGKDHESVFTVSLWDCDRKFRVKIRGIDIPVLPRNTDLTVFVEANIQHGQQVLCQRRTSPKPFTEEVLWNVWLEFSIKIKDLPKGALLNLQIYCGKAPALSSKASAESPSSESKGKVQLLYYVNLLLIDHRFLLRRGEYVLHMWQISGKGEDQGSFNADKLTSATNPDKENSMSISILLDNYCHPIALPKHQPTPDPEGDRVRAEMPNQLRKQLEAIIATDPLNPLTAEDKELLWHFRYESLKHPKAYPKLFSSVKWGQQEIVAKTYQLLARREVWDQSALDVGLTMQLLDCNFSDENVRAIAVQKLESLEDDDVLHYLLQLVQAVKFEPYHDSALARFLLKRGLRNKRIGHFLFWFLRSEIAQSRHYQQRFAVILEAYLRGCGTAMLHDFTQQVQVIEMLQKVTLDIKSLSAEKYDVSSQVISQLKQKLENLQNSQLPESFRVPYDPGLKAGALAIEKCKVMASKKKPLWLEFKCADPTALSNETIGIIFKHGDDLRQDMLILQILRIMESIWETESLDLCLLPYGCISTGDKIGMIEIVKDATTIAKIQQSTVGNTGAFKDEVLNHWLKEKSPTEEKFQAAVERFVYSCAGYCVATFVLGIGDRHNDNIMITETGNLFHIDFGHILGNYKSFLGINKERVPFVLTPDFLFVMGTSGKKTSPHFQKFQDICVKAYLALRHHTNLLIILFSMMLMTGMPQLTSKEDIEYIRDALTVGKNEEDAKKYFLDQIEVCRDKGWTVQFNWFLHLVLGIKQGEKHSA
Sequence of PIK3CB (Human) (P42338 whole entry, looked up): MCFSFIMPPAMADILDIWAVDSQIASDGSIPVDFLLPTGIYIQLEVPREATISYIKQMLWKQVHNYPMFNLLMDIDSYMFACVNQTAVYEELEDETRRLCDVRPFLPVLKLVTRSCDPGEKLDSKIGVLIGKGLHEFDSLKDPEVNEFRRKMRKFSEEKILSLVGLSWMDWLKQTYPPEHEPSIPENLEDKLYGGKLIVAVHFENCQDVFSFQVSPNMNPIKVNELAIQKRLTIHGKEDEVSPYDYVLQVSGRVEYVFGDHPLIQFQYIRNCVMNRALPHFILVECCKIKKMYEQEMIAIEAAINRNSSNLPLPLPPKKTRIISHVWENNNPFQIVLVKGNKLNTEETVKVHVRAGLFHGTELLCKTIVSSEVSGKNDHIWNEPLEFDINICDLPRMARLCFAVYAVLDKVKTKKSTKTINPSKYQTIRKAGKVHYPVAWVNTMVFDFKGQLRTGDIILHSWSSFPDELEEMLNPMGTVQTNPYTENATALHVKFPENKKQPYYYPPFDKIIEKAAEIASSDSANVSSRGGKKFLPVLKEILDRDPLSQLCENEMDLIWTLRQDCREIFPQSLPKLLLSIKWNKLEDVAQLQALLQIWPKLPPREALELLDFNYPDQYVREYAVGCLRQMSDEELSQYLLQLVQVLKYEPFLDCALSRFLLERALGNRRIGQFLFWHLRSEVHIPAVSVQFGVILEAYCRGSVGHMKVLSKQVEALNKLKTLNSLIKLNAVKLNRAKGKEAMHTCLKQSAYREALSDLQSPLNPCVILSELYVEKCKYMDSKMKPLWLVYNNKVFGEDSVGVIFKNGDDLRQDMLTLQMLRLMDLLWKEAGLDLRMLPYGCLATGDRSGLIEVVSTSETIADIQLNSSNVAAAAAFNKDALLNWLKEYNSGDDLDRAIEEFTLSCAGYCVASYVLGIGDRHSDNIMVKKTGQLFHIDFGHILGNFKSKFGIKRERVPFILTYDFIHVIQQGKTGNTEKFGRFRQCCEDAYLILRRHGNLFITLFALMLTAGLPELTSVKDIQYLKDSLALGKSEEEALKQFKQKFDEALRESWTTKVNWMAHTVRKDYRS
Sequence of PIK3CD (Human) (O00329 whole entry, looked up): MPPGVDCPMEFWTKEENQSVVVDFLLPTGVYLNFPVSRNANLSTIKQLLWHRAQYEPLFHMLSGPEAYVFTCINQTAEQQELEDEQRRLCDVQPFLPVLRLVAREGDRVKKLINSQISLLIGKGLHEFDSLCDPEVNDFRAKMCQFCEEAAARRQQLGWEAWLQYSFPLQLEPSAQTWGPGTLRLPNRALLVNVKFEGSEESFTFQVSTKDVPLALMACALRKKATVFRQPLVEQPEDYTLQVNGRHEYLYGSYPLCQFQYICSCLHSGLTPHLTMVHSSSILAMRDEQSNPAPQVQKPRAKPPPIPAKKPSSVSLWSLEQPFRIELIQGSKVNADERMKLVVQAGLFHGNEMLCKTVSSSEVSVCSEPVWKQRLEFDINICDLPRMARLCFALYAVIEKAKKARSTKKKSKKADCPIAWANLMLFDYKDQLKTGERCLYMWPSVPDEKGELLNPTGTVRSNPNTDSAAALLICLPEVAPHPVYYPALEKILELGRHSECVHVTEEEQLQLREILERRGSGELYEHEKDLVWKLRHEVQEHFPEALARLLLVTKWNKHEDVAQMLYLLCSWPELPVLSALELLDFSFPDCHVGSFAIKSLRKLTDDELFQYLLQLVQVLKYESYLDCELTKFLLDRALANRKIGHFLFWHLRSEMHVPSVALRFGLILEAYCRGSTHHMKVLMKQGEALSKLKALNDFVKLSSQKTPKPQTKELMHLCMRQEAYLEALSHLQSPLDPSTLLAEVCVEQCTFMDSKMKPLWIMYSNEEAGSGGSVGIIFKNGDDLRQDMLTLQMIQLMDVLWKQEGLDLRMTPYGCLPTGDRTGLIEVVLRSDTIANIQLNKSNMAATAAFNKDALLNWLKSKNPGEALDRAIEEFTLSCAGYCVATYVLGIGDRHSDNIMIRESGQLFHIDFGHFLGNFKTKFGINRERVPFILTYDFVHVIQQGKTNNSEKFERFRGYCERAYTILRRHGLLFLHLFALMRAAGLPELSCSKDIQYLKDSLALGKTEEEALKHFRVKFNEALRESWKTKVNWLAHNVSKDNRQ

| SMILES | IC50 (PIK3CB (Human)) [nM] | IC50 (PIK3CG (human)) [nM] | IC50 (PIK3CD (Human)) [nM] | IC50 (PIK3CA (human)) [nM] |
| --- | --- | --- | --- | --- |
| CNC(=O)Nc1ccc(-c2nc(N3CC4CCC(C3)O4)c3cnn(C4CCC5(CC4)OCCO5)c3n2)cc1 | > 10000 | > 10000 | – | – |
| CN1CCN(Cc2cc3nc(-c4cccc(O)c4)nc(N4CCOCC4)c3s2)CC1 | 35 | 331 | 4 | – |
| COC(=O)Nc1ccc(-c2nc(N3CCOCC3)c3cnn(C4CCN(Cc5cccnc5)CC4)c3n2)cc1 | – | 3110 | – | – |
| COC(=O)Nc1ccc(-c2nc(N3CCOCC3)c3cnn(C4CCN(C(=O)OC)CC4)c3n2)cc1 | – | 7370 | – | – |
| c1cncc(CN2CCC(n3ncc4c(N5CCOCC5)nc(-c5ccc6[nH]ccc6c5)nc43)CC2)c1 | – | 8450 | – | – |
| COc1ncc(-c2ccc3nccc(-c4ccnnc4)c3c2)cc1NS(=O)(=O)c1ccc(F)cc1F | – | 0.06 | – | – |
| COc1ccc(-c2ccc3c(N4CCOC[C@@H]4C)nc(N4CCOC[C@@H]4C)nc3n2)cc1CO | 18900 | > 14800 | 3200 | 3590 |
| CCC(NC(=O)C(CC(=O)O)NC(=O)CNC(=O)C(CCCN=C(N)N)NC(=O)CCC(=O)O[N+]1(c2cc(=O)c3cccc(-c4ccccc4)c3o2)CCOCC1)C(=O)[O-] (stereo not given) | 736 | 1770 | 3220 | 356 |
| OCCN1CCN(Cc2cc3nc(-c4cccc(O)c4)nc(N4CCOCC4)c3s2)CC1 | 63 | 672 | 8 | – |
